Results from ChEMBL document CHEMBL1201862, “PubChem BioAssay data set” (2004).
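Interpolation was linear, between the two tested concentrations surrounding the appropriate level; five concentrations were tested over 48 hours in 96-well plates. At the GI50, growth is halved.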 The source made the active and inactive calls. No stated cut-off is given here; in the data, active = GI50 up to about 1.1 µM and inactive = higher.

What was measured:
Experiment in all cases: DTP human tumour cell line panel, 48 h
[1] = system: CCRF-CEM
[2] = system: COLO 205
[3] = system: EKVX
[4] = system: HCT-116
[5] = system: HCT-15
[6] = system: HL-60
[7] = system: HT-29
[8] = system: K562
[9] = system: KM12
[10] = system: MOLT-4
[11] = system: NCI-H23
[12] = system: NCI-H460
[13] = system: OVCAR-5
[14] = system: OVCAR-8
[15] = system: SK-MEL-2
[16] = system: SK-MEL-5
[17] = system: SK-OV-3
[18] = system: SN12C
[19] = system: SW-620
[20] = system: OVCAR-3

Row | Compound | GI50 [1] | GI50 [2] | GI50 [3] | GI50 [4] | GI50 [5] | GI50 [6] | GI50 [7] | GI50 [8] | GI50 [9] | GI50 [10] | GI50 [11] | GI50 [12] | GI50 [13] | GI50 [14] | GI50 [15] | GI50 [16] | GI50 [17] | GI50 [18] | GI50 [19] | GI50 [20]
1 | COc1cccc(NC(=O)C(=O)C(C(=O)c2ccccc2F)C2OC(=O)c3ccccc32)c1 (centres undefined) | 16.9 µM (inactive) | 14.6 µM (inactive) | 41.8 µM (inactive) | 20 µM (inactive) | 28.7 µM | 20.7 µM (inactive) | 34.3 µM (inactive) | 30.9 µM (inactive) | 45.8 µM (inactive) | 25.4 µM (inactive) | 29.6 µM (inactive) | 35.1 µM (inactive) | 59 µM (inactive) | 21.8 µM (inactive) | 22.5 µM (inactive) | 52 µM (inactive) | 35.2 µM (inactive) | 18.7 µM (inactive) | 42.6 µM (inactive) | –
2 | O=C1NC(O)c2cc3ccccc3cc2O1 (centres undefined) | 29.2 µM (inactive) | > 100 µM (inactive) | > 100 µM (inactive) | 20 µM (inactive) | 19.1 µM | 28.4 µM (inactive) | > 100 µM (inactive) | 34.9 µM (inactive) | > 100 µM (inactive) | 30.5 µM (inactive) | 42.7 µM (inactive) | > 100 µM (inactive) | > 100 µM (inactive) | 39.2 µM (inactive) | – | 56.5 µM (inactive) | > 100 µM (inactive) | 69 µM (inactive) | 61.1 µM (inactive) | 26.4 µM (inactive)
3 | COc1ccc2oc3c(ccc[n+]3C)c(=O)c2c1 | > 100 µM (inactive) | > 100 µM (inactive) | > 100 µM (inactive) | > 100 µM (inactive) | > 100 µM | > 100 µM (inactive) | > 100 µM (inactive) | > 100 µM (inactive) | > 100 µM (inactive) | – | > 100 µM (inactive) | > 100 µM (inactive) | > 100 µM (inactive) | > 100 µM (inactive) | > 100 µM (inactive) | > 100 µM (inactive) | > 100 µM (inactive) | > 100 µM (inactive) | > 100 µM (inactive) | > 100 µM (inactive)
4 | COc1c2ccoc2c(S(=O)(=O)Nc2ccc(Cl)cc2)c2oc(C)cc(=O)c12 | > 100 µM (inactive) | > 100 µM (inactive) | > 100 µM (inactive) | 36 µM (inactive) | > 100 µM | 23.9 µM (inactive) | > 100 µM (inactive) | > 100 µM (inactive) | > 100 µM (inactive) | > 100 µM (inactive) | > 100 µM (inactive) | > 100 µM (inactive) | > 100 µM (inactive) | 58.3 µM (inactive) | > 76.2 µM (inactive) | > 79.8 µM (inactive) | > 100 µM (inactive) | > 83.4 µM (inactive) | > 100 µM (inactive) | > 100 µM (inactive)
5 | CO[C@](C(=O)OC[C@H]1[C@@H](COC(C)=O)[C@@H]2O[C@H]1c1cc3c(cc12)OCO3)(c1ccccc1)C(F)(F)F | 7.19 µM (inactive) | 28.6 µM (inactive) | 27 µM (inactive) | 13.6 µM (inactive) | 7.46 µM | – | 39.2 µM (inactive) | – | 14.2 µM (inactive) | 19.4 µM (inactive) | 19.1 µM (inactive) | 13.4 µM (inactive) | 30.9 µM (inactive) | – | 28.6 µM (inactive) | 32.9 µM (inactive) | 89.7 µM (inactive) | 25.1 µM (inactive) | 95.9 µM (inactive) | 27 µM (inactive)
6 | CCN(CC)CCCNC(=O)c1ccccc1Nc1c(Cl)cccc1Cl | 6.32 µM (inactive) | 12.7 µM (inactive) | 11.1 µM (inactive) | 11.5 µM (inactive) | 12.6 µM | 3.18 µM (inactive) | 4.23 µM (inactive) | 6.76 µM (inactive) | – | 11.8 µM (inactive) | 16.6 µM (inactive) | – | 11.7 µM (inactive) | 15.7 µM (inactive) | – | 2.96 µM (inactive) | 14.2 µM (inactive) | 14.2 µM (inactive) | 13.6 µM (inactive) | –
7 | O=C(O)CC/C(=N\Nc1nsc2ccccc12)c1ccccc1 | 26.6 µM (inactive) | > 100 µM (inactive) | > 100 µM (inactive) | 41.6 µM (inactive) | 36 µM | 25.4 µM (inactive) | 34.4 µM (inactive) | 26.8 µM (inactive) | > 100 µM (inactive) | 23.4 µM (inactive) | 27.2 µM (inactive) | 33.6 µM (inactive) | > 100 µM (inactive) | 66.7 µM (inactive) | > 100 µM (inactive) | 79.6 µM (inactive) | – | 38.1 µM (inactive) | 52.4 µM (inactive) | 26.5 µM (inactive)
8 | Cc1ccc(NC(=O)CC(=O)n2nc(-c3ccccc3)c(/N=N/c3ccccc3C(=O)O)c2-c2ccccc2)cc1 | – | > 100 µM (inactive) | 1.91 µM (inactive) | > 100 µM (inactive) | > 100 µM | – | – | > 100 µM (inactive) | > 100 µM (inactive) | 4.4 µM (inactive) | – | – | > 100 µM (inactive) | > 100 µM (inactive) | > 100 µM (inactive) | > 100 µM (inactive) | > 100 µM (inactive) | > 100 µM (inactive) | > 100 µM (inactive) | > 100 µM (inactive)
9 | c1ccc(C2=NCCN2)c(C2=NCCN2)c1 | > 100 µM (inactive) | > 100 µM (inactive) | > 100 µM (inactive) | > 100 µM (inactive) | 44.1 µM | > 100 µM (inactive) | > 100 µM (inactive) | > 100 µM (inactive) | > 100 µM (inactive) | > 100 µM (inactive) | > 100 µM (inactive) | > 100 µM (inactive) | > 100 µM (inactive) | > 100 µM (inactive) | > 100 µM (inactive) | > 100 µM (inactive) | > 100 µM (inactive) | > 100 µM (inactive) | > 100 µM (inactive) | > 100 µM (inactive)
10 | COc1ccc2[nH]c(C(=O)N3CC(CCl)c4c3cc(N)c3ccccc43)cc2c1 (centres undefined) | < 0.01 µM (active) | < 0.0105 µM (active) | < 0.01 µM (active) | < 0.01 µM (active) | < 0.01 µM | < 0.01 µM (active) | < 0.01 µM (active) | < 0.01 µM (active) | < 0.01 µM (active) | < 0.01 µM (active) | < 0.01 µM (active) | < 0.01 µM (active) | < 0.01 µM (active) | < 0.01 µM (active) | 0.0122 µM (active) | < 0.01 µM (active) | < 0.014 µM (active) | < 0.01 µM (active) | < 0.01 µM (active) | 0.0139 µM (active)
11 | COc1ccc2c(=O)c(O)c(-c3ccc(OC)c(OC)c3)oc2c1 | 2.36 µM (inactive) | 28.9 µM (inactive) | 6.95 µM (inactive) | 4.97 µM (inactive) | 3.5 µM | 1.66 µM (inactive) | 4.92 µM (inactive) | 4.53 µM (inactive) | – | 3.22 µM (inactive) | – | 3.35 µM (inactive) | 20.8 µM (inactive) | 3.71 µM (inactive) | – | 5.5 µM (inactive) | 5.42 µM (inactive) | – | 4.97 µM (inactive) | 2.84 µM (inactive)
12 | CCOC(=O)CCn1[nH]c(=O)c(Cl)c(Cl)c1=O | > 100 µM (inactive) | > 100 µM (inactive) | > 100 µM (inactive) | > 100 µM (inactive) | > 100 µM | > 100 µM (inactive) | > 100 µM (inactive) | > 100 µM (inactive) | – | – | > 100 µM (inactive) | > 100 µM (inactive) | > 100 µM (inactive) | > 100 µM (inactive) | > 100 µM (inactive) | > 100 µM (inactive) | > 100 µM (inactive) | > 100 µM (inactive) | > 100 µM (inactive) | > 100 µM (inactive)
13 | O=C1CN2Cc3cc(N4CCOCC4)ccc3N=C2N1 | 5.43 µM (inactive) | 32.1 µM (inactive) | – | 21.3 µM (inactive) | 22.9 µM | 72.6 µM (inactive) | 38 µM (inactive) | 2.91 µM (inactive) | 43.3 µM (inactive) | 25 µM (inactive) | 20.3 µM (inactive) | 41.5 µM (inactive) | 87.3 µM (inactive) | 72.9 µM (inactive) | 42.7 µM (inactive) | 27.8 µM (inactive) | 25.8 µM (inactive) | 63.5 µM (inactive) | 47.1 µM (inactive) | 30.1 µM (inactive)
14 | O=c1cnn(C/C=C/CP(=O)(O)O)c(=O)[nH]1 | > 10 µM (inactive) | 80 µM (inactive) | > 100 µM (inactive) | – | > 100 µM | > 100 µM (inactive) | – | > 100 µM (inactive) | > 100 µM (inactive) | – | > 100 µM (inactive) | > 100 µM (inactive) | > 100 µM (inactive) | > 100 µM (inactive) | > 100 µM (inactive) | > 100 µM (inactive) | – | > 100 µM (inactive) | > 100 µM (inactive) | > 100 µM (inactive)
15 | COc1cc(CN(C)N2C(=O)c3cccc4cc([N+](=O)[O-])cc(c34)C2=O)cc(OC)c1OC | > 100 µM (inactive) | > 100 µM (inactive) | – | – | > 100 µM | > 100 µM (inactive) | > 100 µM (inactive) | > 100 µM (inactive) | > 100 µM (inactive) | 27.6 µM (inactive) | > 100 µM (inactive) | > 100 µM (inactive) | > 100 µM (inactive) | > 100 µM (inactive) | > 100 µM (inactive) | > 100 µM (inactive) | 44.1 µM (inactive) | > 100 µM (inactive) | – | > 100 µM (inactive)
16 | CN(C)CCNC(=O)c1cccc2[nH]c(-c3ccncc3)nc12 | 2.29 µM (inactive) | 1.6 µM (inactive) | 12.4 µM (inactive) | 4.07 µM (inactive) | 2.89 µM | 1.01 µM (active) | 2.61 µM (inactive) | 2.64 µM (inactive) | 4.17 µM (inactive) | 3.56 µM (inactive) | 8.39 µM (inactive) | 2.78 µM (inactive) | 10.1 µM (inactive) | 6.68 µM (inactive) | 4.28 µM (inactive) | 2.75 µM (inactive) | – | 9.73 µM (inactive) | 3.19 µM (inactive) | 9.62 µM (inactive)
